Results as given in patent US4751221A, “2-fluoro-arabinofuranosyl purine nucleosides” (Sloan-Kettering Institute for Cancer Research, priority 1985, dated 1988).

Tests used:
NL (Namalva) cells = assay: Cytotoxicity against NL (Namalva) human tumor cells; type: cell-based; conditions: for IC50: NAMALVA, human cells NL, read-out: ID50 NL; for inhibitory activity against human tumor cell line Namalva: in words
L-1210 cells = assay: Cytotoxicity against L-1210 mouse leukemia cells; type: cell-based; conditions: for activity against mouse leukemic cells L-1210: in words
[1] = tested on: Leishmania tropica promastigotes; assay: Growth inhibition of Leishmania tropica promastigotes; type: cell-based; conditions: 50% growth inhibition, read-out: inhibits the growth of Leishmania tropica promastigotes by 50% at the concentration
P-813 cells = assay: Cytotoxicity against P-813 (text: P-815) mouse leukemia cells; type: cell-based; conditions: for IC50: P815, mouse leukemia cells P-813, read-out: ID50 P-813; for activity against mouse leukemic cells P-815: in words
CCRF-CEM cells = assay: Cytotoxicity against CCRF-CEM human tumor cells; type: cell-based; conditions: for IC50: human cells CCRF-CEM, read-out: ID50 CCRFCEM; for inhibitory activity against human tumor cell line CCRF-CEM: in words
[2] = tested on: L-1210 mouse leukemic cells; conditions: in tissue culture; Wilson et al., J. Med. Chem., 13, 369 (1970); cited from earlier work

IC50 [1] [nM] | Structure (SMILES) | IC50 (NL (Namalva) cells) [nM] | IC50 (L-1210 cells; L1210, mouse leukemia cells L-1210, read-out: ID50 L-1210) [µM] | cytotoxicity against L-1210 cells (L-1210 cells; at the concentration of 100 μM) | IC50 (P-813 cells) [µM] | IC50 (CCRF-CEM cells) [nM] | growth-inhibitory effect against L-1210 mouse leukemic cells [2] | inhibitory activity against human tumor cell line Namalva (NL (Namalva) cells) | activity against mouse leukemic cells L-1210 (L-1210 cells) | activity against mouse leukemic cells P-815 (P-813 cells) | inhibitory activity against human tumor cell line CCRF-CEM (CCRF-CEM cells)
600 | O=c1[nH]cnc2c1ncn2[C@@H]1O[C@H](CO)[C@@H](O)[C@@H]1F [9-(2'-deoxy-2'-fluoro-β-D-arabinofuranosyl)hypoxanthin] | ~30000 | > 30 | does not exhibit any cytotoxicity | > 30 | 15100 |  |  |  |  | 
 | Nc1ccn([C@@H]2O[C@H](CO)[C@@H](O)[C@@H]2F)c(=O)n1 [FAC, 1-(2'-deoxy-2'-fluoro-β-D-arabinofuranosyl)cytosine] |  |  |  |  |  | comparable with that of 1-(β-D-arabinofuranosyl)cytosine (ara-C) and 1-(β-D-arabinofuranosyl)-5-fluorocytosine (ara-FC) |  |  |  | 
 | Nc1ncnc2c1ncn2[C@@H]1O[C@H](CO)[C@@H](O)[C@@H]1F [X = NH2, Y = H, 9-(2'-deoxy-2'-fluoro-β-D-arabinofuranosyl)adenine] | 3000 |  |  | > 30 | 670 |  |  |  |  | 
 | Nc1nc(S)c2ncn([C@@H]3O[C@H](CO)[C@@H](O)[C@@H]3F)c2n1 [9-(2'-deoxy-2'-fluoro-β-D-arabinofuranosyl)-2-amino-6-thiopurine] | 1200 |  |  | 4.6 | 100 |  | potent inhibitory activity | modest | modest | potent inhibitory activity
 | OC[C@H]1O[C@@H](n2cnc3c(S)ncnc32)[C@@H](F)[C@@H]1O [X = SH, Y = H, 9-(2'-deoxy-2'-fluoro-β-D-arabinofuranosyl)-6-thiopurine] | 2000 |  |  | 10 | 10000 |  |  |  |  | 
 | Nc1nc2c(ncn2[C@@H]2O[C@H](CO)[C@@H](O)[C@@H]2F)c(=O)[nH]1 [9-(2'-deoxy-2'-fluoro-β-D-arabinofuranosyl)-guanine] | 700 |  |  | 5.4 | < 100 |  | potent inhibitory activity | modest | modest | potent inhibitory activity
